Results reported in patent publication US4956363A, “Treatment of cognitive and behavioral disorders associated with aging and with dementia syndromes” (U C B S.A., priority 1988, dated 1990).
Entries after “also recorded” stand apart in the source; their conditions may differ.

Key:
[1] = test system: learning of the avoidance reflex; experiment: Multiple-trial passive avoidance: learning; assay type: in vivo, rats (male Sprague-Dawley); conditions: i.p. at the dose (mg/kg) of the line in Table V, 30 min before test; criterion 180 seconds on the mat
Experimental: To evaluate whether a compound can promote learning, the following test is carried out.
This experiment is repeated until the animal remains on the rubber mat for at least 180 seconds in order to avoid the electric shock. The learning is expressed by the average number of trials needed to reach a period of 180 seconds remaining on the mat.
A period of remaining on the rubber mat of 180 seconds is regarded as being the maximum performance which can be realized by the animal to avoid the electric shock. Rats which remain on the mat for this period have acquired the avoidance reflex and are replaced in their original cage without receiving the electric shock.
group 1 receives an intraperitoneal injection of physiological salt solution:
group 2 receives an intraperitoneal injection of the compound to be tested:
Columns 3 and 4 show the results obtained in the test used to evaluate the learning. The figures indicate the average number of trials needed for a control animal (group 1) or an animal treated (group 2) with the compound to learn to remain on the rubber mat for 180 seconds in order to avoid the electric shock. The results were analyzed by the Student test.

male NMRI mice = experiment: Toxicity, Irwin's test; assay type: in vivo; conditions: mice, i.p.; death of two animals out of three within 48 hours
Experimental: Progressive doses of the compound to be tested are administered intraperitoneally to groups of three mice until the lethal dose is reached (dose which causes the death of two animals out of three within 48 hours).

[2] = test system: effects of scopolamine on the EEG, band from 6.4 to 9.6 Hz; experiment: Inhibition of the effects of scopolamine on the electroencephalogram (EEG); assay type: in vivo, rats (male albino Sprague-Dawley SPF); conditions: for Inhibition of the effects of scopolamine on the band from 6.4 to 9.6 Hz in the EEG: rats, i.p. at the dose (mg/kg) of the line in Table IV, scopolamine 0.5 mg/kg i.p.
Experimental: Male albino Sprague-Dawley SPF rats (160 to 200 g) are used in this test.
When the animals are 3 months old, 5 cortical electrodes are implanted permanently, aseptically and under a general anesthesia: one inert electrode, one left and one right frontal electrode, and one left and one right occipital electrode (P. ETEVENON, loc. cit.).
The test is carried out when the animals are about 15 months old. In the meantime, the animals are kept in individual cages. They are given water and food ad libitum and are subjected to a regular daily cycle comprising a period of darkness between 6 o'clock in the evening and 6 o'clock in the morning. At the same time, the animals are progressively acclimatized to the cages of the sound-proof cabin which they will subsequently occupy for recording of the electroencephalograms, as well as to the experimental conditions, by intraperitoneal administration of placebo. The products are administered immediately before the EEG is recorded.
The rats are divided into groups of 8 animals and 16 samples of the EEG spectra are recorded over 5 seconds (two EEG spectra per animal). The spectra obtained are then analyzed by computer (rapid Fourier transform), which enables the average of the 16 measurements performed to be determined for each group and the overall intensity of the EEG spectrum and the distribution of this intensity (in %) in the various frequency bands to be deduced for each animal.
This operation (recording of the spectra) is repeated 9 times (total duration: 121 minutes).

[3] = test system: salivatory effect of oxotremorine (peripheral cholinergic activation); experiment: Potentiation of the peripheral cholinergic (salivatory) effect of oxotremorine; assay type: in vivo, mice (male NMRI); conditions: 20 minutes after administration at the minimum active dose; in words
Experimental: The degree of peripheral cholinergic activation is measured by the salivatory effect quantified by the following rating system:
score 1: a little saliva is found around the teeth;
score 2: the saliva forms a narrow band around the mouth;
score 4: the saliva wets a surface underneath the chin;
score 6: the saliva runs from the mouth, for example onto the forelegs.
The intermediate scores are not used, and the saliva is wiped away after each observation.
(§1) Male NMRI mice (20 to 25 g) are divided into four groups of five animals, that is to say: one control group and three treated groups.
The compound to be tested is administered intraperitoneally (to the three treated groups) 20 minutes before the administration of the oxotremorine, at a dose which differs for each of the treated groups. […]
(§2) For each of the groups, the individual scores recorded at each observation period are summed: this enables to plot a curve showing the sum of the scores as a function of time, which is characteristic for each group.
(§3) The mean values of the areas under the curves obtained for each of the treated groups are compared with the mean value of the area under the curve corresponding to the control group and is subjected to statistical analysis by the Mann-Whitney method. From this comparison, "a minimum active dose" can be determined. […]

[4] = test system: tremogenic effect of oxotremorine (central cholinergic activation); experiment: Potentiation of the central cholinergic (tremogenic) effect of oxotremorine; assay type: in vivo, mice (male NMRI)
Experimental: The degree of central cholinergic activation is measured by the tremogenic effect quantified by the following rating system:
score 1: slight and periodic occasional tremors;
score 2: moderate and slight tremors often repeated;
score 4: accentuated tremors, but interrupted by periods of calm;
score 6: very accentuated and almost continuous tremors.
as §1
The compound to be tested is administered intraperitoneally (to the three treated groups) 20 minutes before the administration of the oxotremorine, at a dose which differs for each of the treated groups.
The oxotremorine is administered intraperitoneally to the treated groups and to the control group at a dose of 0.05 mg/kg dissolved in 10 ml/kg of physiological salt solution. […]
as §2, §3

memory = conditions: in words, literature; cited from earlier work
[5] = test system: hyperactivity induced by scopolamine; experiment: Inhibition of hyperactivity induced by scopolamine; assay type: in vivo, rats (male Sprague-Dawley SPF); conditions: administered more than 15 minutes before the measurements; in words
[6] = test system: hyperactivity induced by scopolamine; conditions: rats placed in a new environment; in words, literature; cited from earlier work
[7] = test system: amnesia induced by scopolamine; experiment: Multiple-trial passive avoidance: mnemic retention (amnesia induced by scopolamine)
Experimental: To this end, the method of multiple-trial passive avoidance has been used. This method is well-known for evaluating the effects which a product exerts on the memory and learning (A. FINE et al., Proc. Natl. Acad. Sci. U.S.A., 82, (1985), 5227-5230).
The test is carried out on male Sprague-Dawley rats (160-200 g). which are kept in standard cages throughout the experiment.
The apparatus used is a transparent square cage with 35 cm sides and 25 cm high, fitted with a grid floor which can be electrified. An insulating rubber mat (10×17 cm) is placed on the floor in one of the corners of the cage.
Each animal is subjected to four tests at times 0, 4, 24 and 28 hours. In the first test (time 0), the animal is placed on the rubber mat and the time which it takes to decide to leave this position to explore the cage is recorded. After 20 seconds of exploration, the rat receives an electric shock (3 seconds duration) in the paws, causing a flight reaction. The rat is immediately removed from the apparatus and replaced in its original cage. In the course of the three subsequent tests (times: 4, 24 and 28 hours), the animal is replaced on the rubber mat and the time taken to leave this position is recorded. When the four paws of the animal rest on the grid, it receives an electric shock and is immediately removed from the apparatus.
At the start of the experiment, the rats are divided into 4 homogeneous groups of 15 animals. Thirty minutes before each test, each group of animals is subjected to a predetermined treatment:
Groups 1 and 2 are used in the first experiment and groups 3 and 4 are used in the second experiment.
The differences observed are analyzed statistically by the Mann-Whitney method.

Structure (SMILES) | Learning, average number of trials (group 2) [1] | Lethal dose (male NMRI mice) | Inhibition of the effects of scopolamine on the band from 6.4 to 9.6 Hz in the EEG [2] | effect on memory (memory) | effect on exploratory activity [6] | further results
CCCc1nc(N)nc(N2CCOCC2)n1 [Compound 44, 2-Amino-4-morpholino-6-propyl-1,3,5-triazine] | 1.13 | 779 mg/kg | 100% |  |  | 
CCCc1nc(NC)nc(N2CCOCC2)n1 [Compound 45, 2-(Methylamino)-4-morpholino-6-propyl-1,3,5-triazine] | 2.00 | 821 mg/kg | 91.7% |  |  | 
COC(=O)C1=CCCN(C)C1 [arecoline, methyl 1,2,5,6-tetrahydro-1-methyl-3-pyridinecarboxylate] |  |  |  |  |  | potentiation of the salivatory effect of oxotremorine [3]: no potentiation; potentiation of the tremogenic effect of oxotremorine ([4]; 20 minutes after administration at the minimum active dose, in words): no potentiation
O=C1CCCN1CC#CCN1CCCC1 [oxotremorine] |  |  |  |  |  | minimal effective dose ([4]; Mus musculus, ip, mice, i.p., approximate, read-out: minimum dose of oxotremorine which causes tremors and salivation): ~0.05 mg/kg
CNC(=O)Oc1ccc2c(c1)[C@]1(C)CCN(C)[C@@H]1N2C [physostigmine, reference compound] | 2.30 |  | 76.8% | an improvement in anemic disorders; also recorded: capable of combating the amnesia resulting from the administration of anticholinergic agents | counteracts the hyperactivity induced by scopolamine | activity of physostigmine on the hyperactivity induced by scopolamine [5]: inactive; Period of remaining on the mat, group 4, 4 hours ([7]; compound i.p. at the dose of the line + scopolamine 0.5 mg i.p., 4 h): 17.8 s; Period of remaining on the mat, group 4, 24 hours ([7]; compound i.p. at the dose of the line + scopolamine 0.5 mg i.p., 24 h): 56.2 s; Period of remaining on the mat, group 4, 28 hours ([7]; compound i.p. at the dose of the line + scopolamine 0.5 mg i.p., 28 h): 53.4 s; relation of active dose to side effects / toxic dose ([7]; dose active against the amnesing effect of scopolamine, in words): obtained at a dose which has side effects and is very close to the toxic dose; effect against the amnesing effect of scopolamine ([7]; in words): favorable action against the amnesing effect of scopolamine; effect on the EEG spectrum ([2]; scopolamine 0.5 mg/kg i.p. in rats, in words): counteracts these variations
CN1[C@@H]2C[C@@H](OC(=O)[C@H](CO)c3ccccc3)C[C@H]1[C@@H]1O[C@@H]12 [scopolamine] |  |  |  | gives rise to memory deficiencies similar to those observed in elderly subjects | induces exploratory hyperactivity | 
